Measured values from ChEMBL document CHEMBL3352048, “Development of 2-(4-oxoquinazolin-3(4H)-yl)acetamide derivatives as novel enoyl-acyl carrier protein reductase (InhA) inhibitors for the treatment of tuberculosis” (Eur J Med Chem, 2014).

Test system: Mycobacterium tuberculosis
Assay: Antimycobacterial activity against isoniazid, rifampicin, ofloxacin and kanamycin-resistant Mycobacterium tuberculosis H37Rv ATCC 27294 clinical isolate after 28 days by two-fold serial dilution assay in presence of […] piperine efflux pump inhibitor
Assay type: functional
Settings: H37Rv ATCC 27294, 672 h

SMILES	MIC
O=C(Cn1cnc2ccccc2c1=O)NCc1cccs1	20.9 µM
O=C(Cn1cnc2ccccc2c1=O)NCc1ccco1	11 µM
O=C(Cn1cnc2ccccc2c1=O)Nc1ccccc1	22.4 µM
O=C(Cn1cnc2ccc(Cl)cc2c1=O)Nc1ccccc1	39.8 µM
O=C(Cn1cnc2ccccc2c1=O)Nc1cc(C(F)(F)F)ccc1Cl	8.18 µM
O=C(Cn1cnc2ccc(Cl)cc2c1=O)Nc1cc(C(F)(F)F)ccc1Cl	60.1 µM
O=C(Cn1cnc2ccc(Cl)cc2c1=O)NCc1ccco1	39.3 µM
O=C(Cn1cnc2ccc(Cl)cc2c1=O)NCc1cccs1	37.4 µM
Cc1nc2ccc(Cl)cc2c(=O)n1CC(=O)Nc1ccccc1	19.1 µM
Cc1nc2ccc(Cl)cc2c(=O)n1CC(=O)NCc1ccco1	18.8 µM
Cc1nc2ccccc2c(=O)n1CC(=O)NCc1cccs1	19.9 µM
O=C(Cn1cnc2ccccc2c1=O)NCc1nc2ccc([N+](=O)[O-])cc2s1	4.09 µM
CC[C@@H](CO)NCCN[C@@H](CC)CO [ETHAMBUTOL]	245 µM
NNC(=O)c1ccncc1 [ISONIAZID]	45.6 µM
CO[C@H]1/C=C/O[C@@]2(C)Oc3c(C)c(O)c4c(O)c(c(/C=N/N5CCN(C)CC5)c(O)c4c3C2=O)NC(=O)/C(C)=C\C=C\[C@H](C)[C@H](O)[C@@H](C)[C@@H](O)[C@@H](C)[C@H](OC(C)=O)[C@@H]1C [RIFAMPIN]	30.4 µM
